# “And” between values parts separate entries of the source, which are not always exact repeats. Identical values can stand only once. Like-named read-outs stand apart in the source and are kept apart here.
# What was measured:
# murine lymphocytes = test: In vitro functional assay based on viability of murine lymphocytes; format: cell-based
# Method: FIG. 1C. The effect of 5FU or vehicle control in the functional assay presented as viable cells/ml. The incubation time with 5FU or vehicle control (72 hours) is indicated on the x-axis.
# topoisomerase I = target: T1, topoisomerase I (Homo sapiens, UniProt P11387); conditions: cited from earlier work
# T1 sequence (P11387 1-765): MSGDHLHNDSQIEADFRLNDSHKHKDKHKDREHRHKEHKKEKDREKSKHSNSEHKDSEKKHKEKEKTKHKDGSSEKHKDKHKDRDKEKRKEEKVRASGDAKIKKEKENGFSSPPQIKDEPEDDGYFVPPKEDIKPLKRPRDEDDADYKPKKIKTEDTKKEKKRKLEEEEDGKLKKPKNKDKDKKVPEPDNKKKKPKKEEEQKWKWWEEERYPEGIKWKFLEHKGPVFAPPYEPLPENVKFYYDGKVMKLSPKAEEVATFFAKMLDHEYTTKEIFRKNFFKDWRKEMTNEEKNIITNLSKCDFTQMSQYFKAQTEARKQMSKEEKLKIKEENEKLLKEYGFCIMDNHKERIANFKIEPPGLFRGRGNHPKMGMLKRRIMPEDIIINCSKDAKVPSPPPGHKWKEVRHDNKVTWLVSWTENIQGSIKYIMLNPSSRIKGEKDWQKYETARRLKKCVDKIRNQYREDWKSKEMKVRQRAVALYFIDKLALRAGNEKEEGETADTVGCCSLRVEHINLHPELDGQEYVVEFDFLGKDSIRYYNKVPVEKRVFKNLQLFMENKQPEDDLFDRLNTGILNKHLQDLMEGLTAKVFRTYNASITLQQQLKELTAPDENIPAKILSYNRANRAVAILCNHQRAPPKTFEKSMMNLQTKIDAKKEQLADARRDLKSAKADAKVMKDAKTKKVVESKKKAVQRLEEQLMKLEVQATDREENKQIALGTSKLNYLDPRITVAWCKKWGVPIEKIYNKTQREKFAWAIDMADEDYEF
# [1] = Phase I clinical trial of CT-011, pharmacokinetics; conditions: Table 2 patients
# [2] = test system: advanced hematological malignancies
# [3] = human, in vivo
# [4] = murine lymphocytes, agent combined with hBAT-1
# [5] = AML patient receiving CT-011 at 0.2 and 3 mg/kg
# [6] = Pt. 003/016, AML, 0.2/3.0 mg/kg
compound,measurement,setting,value
"O=c1[nH]cc(F)c(=O)[nH]1 [5FU, 5-fluorouracil]",effect of chemotherapeutic agent on the activity of hBAT-1,murine lymphocytes; [4],do not adversely affect the activity of hBAT-1
same,cell survival with chemotherapeutic agent on its own,"murine lymphocytes; without hBAT-1, FIG. 1C",did not enhance cell survival
O=C1[O][Pt]2([NH][C@@H]3CCCC[C@H]3[NH]2)[O]C1=O [oxaliplatin],effect of chemotherapeutic agent on the activity of hBAT-1,murine lymphocytes,do not adversely affect the activity of hBAT-1
"CCc1c2c(nc3ccc(O)cc13)-c1cc3c(c(=O)n1C2)COC(=O)[C@]3(O)CC [SN-38, 7-ethyl-10-hydroxy-camptothecin]",cell survival when given in combination with hBAT-1,murine lymphocytes,do not enhance cell survival
same,potency relative to parent compound irinotecan,topoisomerase I,One thousand-fold more potent
hBAT-1: humanized monoclonal antibody with CDRs of murine mBAT-1 and human framework regions,median t1/2 of the 6 patients with apparent clinical response versus the rest,[1],somewhat higher than that of the rest of the patients
same,patients reporting adverse events (AE),[2]; 11 of 18,61%
same,changes in disease parameters,"[2]; 21 days, 2 CLL, 4 NHL and one Multiple Myeloma patient",no changes in disease parameters
same,clinical response,[2]; [5],minimal response
same,time to progression after receiving CT-011,[2]; [5],61 weeks
same,change in average percentage of blasts in the peripheral blood,"[2]; AML patients, 21 days, excluding one patient",no change
same,duration of stable disease,"[2]; CLL patient, 0.6 mg/kg",36 weeks
same,duration of stable disease,"[2]; CLL patient, 1.5 mg/kg",over 78 weeks
same,duration of stable disease,"[2]; HD patient, 0.6 mg/kg",35 weeks
same,duration of stable disease,"[2]; MM patient, 6.0 mg/kg",over 60 weeks
same,Overall Survival (Weeks),[2]; [6],61 Weeks
same,platelet transfusion-independent period,[2]; [6],for 9 months
same,reduction in peripheral blasts,"[2]; Pt. 003/016, AML, on first dose (0.2 mg/kg)",(50% to 5%) on first dose
same,Overall Survival (Weeks),"[2]; Pt. 005, CLL, 0.6 mg/kg",36 Weeks
same,Overall Survival (Weeks),"[2]; Pt. 006, HD, 0.6 mg/kg",35 Weeks
same,Overall Survival (Weeks),"[2]; Pt. 008, CLL, 1.5 mg/kg",>78 Weeks
same,duration stable,"[2]; Pt. 008, CLL, 1.5 mg/kg",Stable for >17 months
same,Overall Survival (Weeks),"[2]; Pt. 015, NHL, 3.0 mg/kg",>68 Weeks
same,tumor masses by CT scan,"[2]; Pt. 015, follicular lymphoma, 10 months post CT-011 treatment",complete elimination of tumor masses
same,Overall Survival (Weeks),"[2]; Pt. 017, MM, 6.0 mg/kg",>60 Weeks
same,duration stable,"[2]; Pt. 017, MM, 6.0 mg/kg",Stable for >13 months
same,cumulative survival of all patients,"[2]; at 21 days, n=18",76%
same,most frequent AE,[2]; concluded not associated with CT-011 treatment,diarrhea
same,patients with apparent response to treatment,[2]; follow-up,6 patients
same,mean survival time,"[2]; follow-up beyond 21 days, all patients, listed as CT-011",25±27 weeks and 25 weeks
same,difference in mean survival time across the dose groups,"[2]; human, in vivo",No difference
same,serious adverse events,"[2]; number, all resulted in death, in AML patients",Four
same,sustained remission,"[2]; patient #015, following CT-011 treatment",68 weeks
same,clinical response,"[2]; patient #015, stage III follicular lymphoma, 3.0 mg/kg",complete remission
same,dose-limiting toxicity (DLT),[2]; single dose 0.2 to 6 mg/kg,No DLT was reached
same,maximum tolerated dose (MTD),[2]; single dose 0.2 to 6 mg/kg,No single dose MTD was found
same,safety and tolerability,[2]; single dose 0.2 to 6 mg/kg,safe and well tolerated with no treatment-related toxicities
same,highest half life,[3],17.1 days
CC(=O)O[C@H]1C(=O)[C@@]2(C)[C@H]([C@H](OC(=O)c3ccccc3)[C@]3(O)C[C@H](OC(=O)[C@H](O)[C@@H](NC(=O)c4ccccc4)c4ccccc4)C(C)=C1C3(C)C)[C@]1(OC(C)=O)CO[C@@H]1C[C@@H]2O [paclitaxel],effect of chemotherapeutic agent on the activity of hBAT-1,murine lymphocytes; [4],do not adversely affect the activity of hBAT-1
Nc1ccn([C@@H]2O[C@H](CO)[C@@H](O)[C@@H]2O)c(=O)n1 [cytarabine],effect of chemotherapeutic agent on the activity of hBAT-1,murine lymphocytes; [4],do not adversely affect the activity of hBAT-1
"N.N.[Cl][Pt][Cl] [cisplatin, cis-diamminedichloridoplatinum II]",effect of chemotherapeutic agent on the activity of hBAT-1,murine lymphocytes; [4],do not adversely affect the activity of hBAT-1
O=P1(N(CCCl)CCCl)NCCCO1 (stereo not drawn) [cyclophosphamide],cell survival when given in combination with hBAT-1,murine lymphocytes; murine lymphocyte culture,do not enhance cell survival

# Source: patent US9309308B2, “Monoclonal antibodies for tumor treatment” (CURETECH LTD., priority 2008, dated 2016)
